Assay results taken from US20200085791A1, “[(PHENYLSULFONYL)OCTAHYDRO-EPIMINOISOINDOL-YL](1H-1,2,3-TRIAZOL-5-YL)METHANONES” (Bayer Pharma Aktiengesellschaft, priority 2016, published 2020).

Target: T1, recombinant human AKR1C3 (Aldo-keto reductase family 1 member C3) (Homo sapiens, UniProt P42330)
T1 construct: GST (cleaved yes); made in house; host or cells: E. coli
T1 sequence (P42330 1-323): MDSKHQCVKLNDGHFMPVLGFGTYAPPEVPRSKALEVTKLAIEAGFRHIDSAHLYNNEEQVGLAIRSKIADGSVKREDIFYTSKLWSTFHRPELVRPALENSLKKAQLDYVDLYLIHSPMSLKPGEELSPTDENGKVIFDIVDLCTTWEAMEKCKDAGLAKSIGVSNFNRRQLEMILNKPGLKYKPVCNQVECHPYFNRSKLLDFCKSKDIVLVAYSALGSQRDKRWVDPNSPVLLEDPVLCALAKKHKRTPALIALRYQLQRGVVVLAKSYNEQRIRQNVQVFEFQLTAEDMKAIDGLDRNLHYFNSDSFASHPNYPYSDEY
Test: In Vitro Assay 1: AKR1C3-inhibitory activity (Coumberone to Coumberol fluorescence assay)
Assay type: biochemical
Conditions: recombinant enzyme, Coumberone 0.3 μM, NADPH 10 μM, 15 min pre-incubation, 4-parameter fit; average or median values
How it was run: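 Recombinant human AKR1C3 (E. coli-expressed GST fusion, GST removed), typically ~1 nM, was preincubated 15 min with compound in 50 mM potassium phosphate pH 7 with 1 mM DTT. The reaction ran typically 90 min with 10 μM NADPH and 0.3 μM Coumberone (final), then was stopped with 1 μM EM-1404. Coumberol fluorescence (ex 380/em 520 nm) was normalized to no-inhibitor and no-enzyme controls.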

SMILES | IC50
Cc1cc(Cl)cc(S(=O)(=O)N2[C@@H]3CC[C@H]2[C@@H]2CN(C(=O)c4cnn[nH]4)C[C@@H]23)c1 [Example 68, {(3aR,4R,7S,7aS)-8-[(3-chloro-5-methylphenyl)sulfonyl]octahydro-2H-4,7-epiminoisoindol-2-yl}(1H-1,2,3-triazol-5-yl)methanone] | 48 nM
Nc1cccc(S(=O)(=O)N2[C@@H]3CC[C@H]2[C@@H]2CN(C(=O)c4cnn[nH]4)C[C@@H]23)c1 [Example 69, {(3aR,4R,7S,7aS)-8-[(3-aminophenyl)sulfonyl]octahydro-2H-4,7-epiminoisoindol-2-yl}(1H-1,2,3-triazol-5-yl)methanone] | 735 nM
